Earlier results, collected in patent publication US20190388350A1, “FORMULATION” (priority 2018, published 2019).
Structures can show the parent of a compound that is named as a salt.

Structure (SMILES): CCN(C)C(=O)Oc1cccc([C@H](C)N(C)C)c1 [rivastigmine tartrate]
- pKa: 8.9
